Experimental data taken from patent US20070270352A1, “Method of Treatment” (priority 2002, published 2007).
Read-outs that look alike come from different tables or passages of the source.

Key:
[1] = test system: p75^NTR (i.e. Chopper)-mediated cell apoptosis; type: cell-based, mice
[2] = test system: p75^NTR-mediated cell apoptosis; test: Caspase activity after injection into the eye of chick embryos (FIG. 11); type: in vivo; conditions: injected into the eye of chick embryos; 500 nM of Tertiapin
Description: FIG. 11 is a graphical representation showing that p75^NTR-mediated cell apoptosis requires functional GIRK channels. Apoptotic activity is measured in terms of caspase activity in the presence of Tertiapin, anti-NGF antibody and Iberiotoxin.
In FIG. 11, Tertiapin was injected into the eye of chick embryos. Anti-NGF antibodies and Iberiotoxin ([…]) were also tested. Apoptotic activity was measured using caspase activity.

GIRK 1 and 4 subunits = biological target: T1, GIRK 1 and 4 subunits (Homo sapiens, UniProt P48544+P48549); conditions: cited from earlier work
T1 sequence (P48544 whole entry, looked up): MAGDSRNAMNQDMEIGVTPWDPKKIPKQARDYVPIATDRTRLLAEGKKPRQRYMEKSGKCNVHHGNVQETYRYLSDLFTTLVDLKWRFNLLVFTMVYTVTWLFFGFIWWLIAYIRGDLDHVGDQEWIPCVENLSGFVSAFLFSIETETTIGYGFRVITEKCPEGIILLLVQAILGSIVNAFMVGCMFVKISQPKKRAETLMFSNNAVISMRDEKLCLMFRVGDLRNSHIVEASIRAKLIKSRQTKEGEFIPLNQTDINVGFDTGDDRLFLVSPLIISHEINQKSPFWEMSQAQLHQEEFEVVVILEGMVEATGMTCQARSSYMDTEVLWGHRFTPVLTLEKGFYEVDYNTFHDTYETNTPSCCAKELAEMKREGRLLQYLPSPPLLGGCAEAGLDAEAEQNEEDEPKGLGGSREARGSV
T1 sequence (P48549 whole entry, looked up): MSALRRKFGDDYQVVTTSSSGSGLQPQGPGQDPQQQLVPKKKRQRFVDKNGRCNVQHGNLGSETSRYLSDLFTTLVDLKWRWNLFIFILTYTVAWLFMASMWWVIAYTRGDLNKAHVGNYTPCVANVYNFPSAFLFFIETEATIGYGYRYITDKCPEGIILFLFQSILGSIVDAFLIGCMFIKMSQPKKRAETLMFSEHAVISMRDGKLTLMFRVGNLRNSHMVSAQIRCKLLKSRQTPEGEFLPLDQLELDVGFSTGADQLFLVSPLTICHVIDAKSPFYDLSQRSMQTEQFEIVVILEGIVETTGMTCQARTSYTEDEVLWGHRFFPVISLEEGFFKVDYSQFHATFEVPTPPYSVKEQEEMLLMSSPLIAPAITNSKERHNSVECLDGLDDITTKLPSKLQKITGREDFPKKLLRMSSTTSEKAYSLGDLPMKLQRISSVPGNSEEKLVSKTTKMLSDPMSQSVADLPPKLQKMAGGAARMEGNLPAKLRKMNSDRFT

ROMK1 channels = biological target: T2, ROMK1 channels (Homo sapiens, UniProt P48048); conditions: cited from earlier work
T2 sequence (P48048 whole entry, looked up): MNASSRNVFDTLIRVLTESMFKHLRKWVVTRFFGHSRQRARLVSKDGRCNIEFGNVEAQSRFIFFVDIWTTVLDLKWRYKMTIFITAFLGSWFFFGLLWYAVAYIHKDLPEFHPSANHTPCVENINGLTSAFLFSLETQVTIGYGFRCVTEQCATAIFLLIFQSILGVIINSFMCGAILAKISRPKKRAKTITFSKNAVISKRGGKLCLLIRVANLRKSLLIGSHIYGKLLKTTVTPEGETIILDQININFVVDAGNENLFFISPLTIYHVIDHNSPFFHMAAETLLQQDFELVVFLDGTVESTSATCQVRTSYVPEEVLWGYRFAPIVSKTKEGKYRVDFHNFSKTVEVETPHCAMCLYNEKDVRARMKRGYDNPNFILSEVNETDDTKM

[3] = p75NTR (Chopper)-mediated apoptosis of neuronal cells, neuronal viability after Chopper peptide, inhibitor added just prior or pretreated

Compound | Prevention of killing? [1, 3] | other results
δ-Dendrotoxin | No | –
Tertiapin (ALCNCNRIIIPHMCWKKCGKK) | Yes | Chopper domain-mediated killing / p75^NTR (i.e. Chopper)-mediated cell apoptosis ([1]; FIGS. 3-7, 10): inhibited; caspase activity (apoptotic activity) [2]: effective in reducing caspase activity; affinity of inhibition (GIRK 1 and 4 subunits): nanomolar affinities; affinity of inhibition (ROMK1 channels): nanomolar affinities
O=C(O)CN(CC(=O)O)c1ccccc1OCCOc1ccccc1N(CC(=O)O)CC(=O)O [BAPTA] | No | –
2-APB | No | –
Nc1ccncc1 [4-aminopyridine] | Toxic | –
Iberiotoxin (QFTDVDCSVSKECWSVCKDLFGVDRGKCMGKKCRCYQ; UniProt P24663 1-37, looked up) | No | –
CC[N+](CC)(CC)CC.[Cl-] [TEA, Tetraethylammonium chloride] | – | Chopper domain-mediated killing / p75^NTR (i.e. Chopper)-mediated cell apoptosis [1]: inhibited; Prevention of killing? [1]: Yes
Margatoxin | No | –
TTX | – | Prevention of killing? [1]: No
CC(=O)OCOC(=O)CN(CC(=O)OCOC(C)=O)c1ccccc1OCCOc1ccccc1N(CC(=O)OCOC(C)=O)CC(=O)OCOC(C)=O [BAPTA-AM] | Yes | –
Pertussis toxin [Pertusis toxin] | No | Chopper domain-mediated killing / p75^NTR (i.e. Chopper)-mediated cell apoptosis ([1]; FIGS. 3-7, 10): still results in Chopper-mediated killing
NCC(CC(=O)O)c1ccc(Cl)cc1 (stereo not shown) [Baclofen] | – | cell survival ([1]; GABA receptor agonist activating GIRKs (FIG. 10 model)): promotion of cell survival
CCCCN1CCCCC1C(=O)Nc1c(C)cccc1C (stereo not shown) [Bupivicane] | Yes | Chopper domain-mediated killing / p75^NTR (i.e. Chopper)-mediated cell apoptosis ([1]; FIGS. 3-7, 10): inhibited
Charybdotoxin | Yes | Chopper domain-mediated killing / p75^NTR (i.e. Chopper)-mediated cell apoptosis ([1]; FIGS. 3-7, 10): inhibited
